pIC50: −log10 of the molar value. Structures can show the parent of a compound that is named as a salt.
molecular target: T1, cloned rat PDE10A full-length enzyme (Rattus norvegicus, UniProt Q9QYJ6); assay: PDE10 enzyme inhibition, [3H]cAMP scintillation proximity assay; assay type: biochemical; settings: rat PDE10A from Sf9 cells, 20 nM [3H]cAMP, SPA beads, 20 minute incubation at room temperature
T1 construct: cloned rat PDE10A full-length enzyme grown in transfected Sf9 insect cells; made in house; host or cells: Sf9 insect cells
T1 sequence (Q9QYJ6 1-794): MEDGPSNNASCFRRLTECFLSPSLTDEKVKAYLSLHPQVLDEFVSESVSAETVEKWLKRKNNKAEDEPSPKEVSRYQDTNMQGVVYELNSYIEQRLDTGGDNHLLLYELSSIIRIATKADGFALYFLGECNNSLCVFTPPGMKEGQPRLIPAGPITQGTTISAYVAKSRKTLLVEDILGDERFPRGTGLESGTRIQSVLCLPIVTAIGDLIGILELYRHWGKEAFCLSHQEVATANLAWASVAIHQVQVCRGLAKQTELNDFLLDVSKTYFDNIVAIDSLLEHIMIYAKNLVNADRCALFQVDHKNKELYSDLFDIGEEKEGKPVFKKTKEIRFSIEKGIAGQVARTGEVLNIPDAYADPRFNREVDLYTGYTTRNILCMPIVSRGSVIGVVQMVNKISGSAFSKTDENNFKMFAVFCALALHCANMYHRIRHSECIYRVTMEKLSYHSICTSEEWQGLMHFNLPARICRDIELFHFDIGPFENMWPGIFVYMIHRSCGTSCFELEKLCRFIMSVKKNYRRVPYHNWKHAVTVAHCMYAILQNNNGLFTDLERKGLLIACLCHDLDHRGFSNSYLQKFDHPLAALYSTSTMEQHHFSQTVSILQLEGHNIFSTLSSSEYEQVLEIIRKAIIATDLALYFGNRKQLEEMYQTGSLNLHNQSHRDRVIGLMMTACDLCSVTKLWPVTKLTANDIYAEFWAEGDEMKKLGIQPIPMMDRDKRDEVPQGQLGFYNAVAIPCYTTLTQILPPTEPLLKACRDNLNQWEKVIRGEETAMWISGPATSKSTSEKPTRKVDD
Procedure: Compounds of the present invention were evaluated for ability to inhibit PDE10 enzyme with the following Assay procedure
The enzyme used in the procedure was cloned rat PDE10A full-length enzyme grown in transfected Sf9 insect cells. Cloned enzyme was extracted from homogenized cell pellets and stored frozen in homogenizing buffer until use. Compounds were initially dissolved in 100% DMSO and diluted out in 20 percent DMSO/water solution. Final concentration of DMSO in the assay was 2 percent as compounds were tested in triplicate in 96 well plates. Compound solution was placed in well, then tritiated cyclic AMP (New England Nuclear NET275) in assay buffer was added at 20 nM concentration. Then PDE10 enzyme in assay buffer of 50 mM Tris, 8.3 mM MgCl2, pH 7.5 at room temperature was added for a final assay volume of 100 ul. Concentration of enzyme was added such that less than 10 percent of [3H]cAMP at 20 nM was converted to detectable end product, [3H]AMP bound to SPA (Scintillation Proximity Assay) beads. Phosphodiesterase scintillation proximity yttrium silicate beads from Amersham Biosciences (RPNQ0150) were added (50 ul at 20 mg/ml) after a 20 minute incubation at room temperature. Zinc sulphate as a component of the beads stops the phosphodiesterase reaction.
Non-specific binding to SPA beads was determined by addition of 1 uM papaverine. Total conversion by enzyme without inhibitor of [3H]cAMP to [3H]AMP, as detected by scintillation of [3H]AMP bound to yttrium silicate beads, was determined in the presence of vehicle-only.

| Structure (SMILES) | pIC50 |
| --- | --- |
| Cc1ccc(-n2cc(-c3nccs3)nc2-c2ccc(-n3ccc4cccnc43)cc2)cn1 [Example 27, 1-(4-(1-(6-methylpyridin-3-yl)-4-(thiazol-2-yl)-1H-imidazol-2-yl)phenyl)-1H-pyrrolo[2,3-b]pyridine] | 8.83 |
| Cc1ncccc1-n1cc(-c2nccs2)nc1-c1ccc(-n2ccc3cccnc32)cc1 [Example 28, 1-(4-(1-(2-methylpyridin-3-yl)-4-(thiazol-2-yl)-1H-imidazol-2-yl)phenyl]-1H-pyrrolo[2,3-b]pyridine] | 7.36 |
| COc1ccc(-n2cc(-c3nccs3)nc2-c2ccc(-n3ccc4cccnc43)cc2)cn1 [Example 29, 1-(4-(1-(6-methoxypyridin-3-yl)-4-(thiazol-2-yl)-1H-imidazol-2-yl)phenyl)-1H-pyrrolo[2,3-b]pyridine] | 9.42 |
| CN(C)c1ccc(-n2cc(-c3nccs3)nc2-c2ccc(-n3ccc4cccnc43)cc2)cn1 [Example 30, 5-(2-(4-(1H-pyrrolo[2,3-b]pyridin-1-yl)phenyl)-4-(thiazol-2-yl)-1H-imidazol-1-yl)-N,N′-dimethylpyridin-2-mine] | 9.22 |
| CNCCc1ccc(-n2cc(-c3nccs3)nc2-c2ccc(-n3ccc4cccnc43)cc2)cc1 [Example 31] | 8.18 |
| FC(F)(F)c1ccc(-n2cc(-c3nccs3)nc2-c2ccc(-n3ccc4cccnc43)cc2)cn1 [Example 32, 1-(4-(1-(6-(trifluoromethyl)pyridin-3-yl)-4-(thiazol-2-yl)-1H-imidazol-2-yl)phenyl)-1H-pyrrolo[2,3-b]pyridine] | 8.67 |
| CNCc1ccc(-n2cc(-c3nccs3)nc2-c2ccc(-n3ccc4cccnc43)cc2)cc1 [Example 33, (4-(2-(4-(1H-pyrrolo[2,3-b]pyridin-1-yl)phenyl)-4-(thiazol-2-yl)-1H-imidazol-1-yl)phenyl-N-methylmethanamine Hydrochloride] | 7.85 |
| c1cnc2c(c1)ccn2-c1ccc(-c2nc(-c3nccs3)cn2-c2ccc(N3CCOCC3)nc2)cc1 [Example 34, 1-(4-(1-(6-morpholinopyridin-3-yl)-4-(thiazol-2-yl)-1H-imidazol-2-yl)phenyl)-1H-pyrrolo[2,3-b]pyridine] | 9.36 |
| c1ccc(-c2cn(-c3cccnc3)c(-c3ccc(-n4ncc5ccccc54)cc3)n2)nc1 [Example 35, 1-(4-(4-(pyridin-2-yl)-1-(pyridin-3-yl)-1H-imidazol-2-yl)phenyl)-1H-indazole] | 7.56 |
| c1ccc(-c2cn(-c3cccnc3)c(-c3ccc(-n4ccc5ccccc54)cc3)n2)nc1 [Example 36, 1-(4-(4-(pyridin-2-yl)-1-(pyridin-3-yl)-1H-imidazol-2-yl)phenyl)-1H-indole] | 6.55 |
| Fc1cccc2ccn(-c3ccc(-c4nc(-c5ccccn5)cn4-c4cccnc4)cc3)c12 [Example 37] | 7.51 |
| Fc1c(F)c(F)c2c(ccn2-c2ccc(-c3nc(-c4ccccn4)cn3-c3cccnc3)cc2)c1F [Example 38, 4,5,6,7-tetratfluoro-1-(4-(4-(pyridin-2-yl)-1-(pyridin-3-yl)-1H-imidazol-2-yl)phenyl)-1H-indole] | 6.77 |
| Clc1cccc2c1ccn2-c1ccc(-c2nc(-c3ccccn3)cn2-c2cccnc2)cc1 [Example 39, 4-chloro-1-(4-(4-(pyridin-2-yl)-1-(pyridin-3-yl)-1H-imidazol-2-y TFA salt] | 6.95 |
| N#Cc1cccc2c1ccn2-c1ccc(-c2nc(-c3ccccn3)cn2-c2cccnc2)cc1 [Example 40, 1-(4-(4-(pyridin-2-yl)-1-(pyridin-3-yl)-1H-imidazol-2-yl)phenyl)-1H-indole-4-carbonitrile bis-TFA salt] | 7.18 |
| Cc1cn(-c2ccc(-c3nc(-c4ccccn4)cn3-c3cccnc3)cc2)cn1 [Example 41, 3-(2-(4-(4-methyl-1H-imidazol-1-yl)phenyl)-4-(pyridin-2-yl)-1H-imidazol-1-yl)pyridine] | 6.53 |
| c1ccc(-c2cn(-c3cccnc3)c(-c3ccc(-n4nnc5ccccc54)cc3)n2)nc1 [Example 42, 1-(4-(4-(pyridin-2-yl)-1-(pyridin-3-yl)-1H-imidazol-2-yl)phenyl)-1H-benzo[d][1,2,3]triazole bis-TFA salt] | 7.17 |
| c1ccc(-c2cn(-c3cccnc3)c(-c3ccc(-n4c(-c5ccccn5)nc5ccccc54)cc3)n2)nc1 [Example 43, 2-(pyridin-2-yl)-1-(4-(4-(pyridin-2-yl)-1-(pyridin-3-yl)-1H-imidazol-2-yl)phenyl)-1H-benzo[d]imidazole] | 7.48 |
| c1ccc(-c2cn(-c3cccnc3)c(-c3ccc(-n4ccnc4)cc3)n2)nc1 [Example 44, 3-(2-(4-(1H-imidazol-1-yl)phenyl)-4-(pyridin-2-yl)-1H-imidazol-1-yl)pyridine] | 6.28 |
| c1ccc(-c2cn(-c3cccnc3)c(-c3ccc(-n4cnc5ccccc54)cc3)n2)nc1 [Example 45, 1-(4-(4-(pyridin-2-yl)-1-(pyridin-3-yl)-1H-imidazol-2-yl)phenyl)-1H-benzo[d]imidazole] | 7.01 |
| Cc1ccc(-n2cc(-c3ccccn3)nc2-c2ccc(-n3ccc4nccnc43)cc2)cn1 [Example 50, 5-(4-(1-(6-methylpyridin-3-yl)-4-(pyridin-2-yl)-1H-imidazol-2-yl)phenyl)-5H-pyrrolo[3,2-b]pyrazine] | > 8.46 |

More lines, now with the values ahead:

| pIC50 | Structure (SMILES) |
| --- | --- |
| 7.94 | c1ccc(-c2cn(-c3cccnc3)c(-c3ccc(-n4nnc5cccnc54)cc3)n2)nc1 [Example 51, 3(4-(4-(pyridin-2-yl)-1-(pyridin-3-yl)-1H-imidazol-2-yl)phenyl)-3H-[1,2,3]triazole[4,5-b]pyridine bis-TFA salt] |
| 8.03 | Cc1ccc(-n2cc(-c3ccccn3)nc2-c2ccc(-n3ccc4ncccc43)cc2)cn1 [Example 52, 1-(4-(1-(6-methylpyridin-3-yl)-4-(pyridin-2-yl)-1H-imidazol-2-yl)phenyl)-1H-pyrrolo[3,2-b]pyridine] |
| 8.24 | Cc1ccc(-n2cc(-c3ccccn3)nc2-c2ccc(-n3ccc4ccncc43)cc2)cn1 [Example 53] |
| 8.24 | Cc1ccc(-n2cc(-c3ccccn3)nc2-c2ccc(-n3ccc4cnccc43)cc2)cn1 [Example 54, 1-(4-(1-(6-methylpyridine-3-yl)-4-(pyridin-2-yl)-1H-imidazol-2-yl)phenyl)-1H-pyrrolo[3,2-c]pyridine] |
| 7.99 | Cc1ccc(-n2cc(-c3ccccn3)nc2-c2ccc(-n3cnc4cncnc43)cc2)cn1 [Example 55, 9-(4-(1-(6-methylpyridin-3-yl)-4-(pyridin-2-yl)-1H-imidazol-2-yl)phenyl-9H-purine and 7-(4-(1-(6-methylpyridin-3-yl)-4-pyridin-2-yl)-1H-imidazol-2-yl))phenyl)-7H-purine] |
| 8.19 | Cc1ccc(-n2cc(-c3ccccn3)nc2-c2ccc(-n3ncc4ccncc43)cc2)cn1 [Example 56, 1-(4-(1-(6-methylpyridin-3-yl)-4-(pyridin-2-yl)-1H-imidazol-2-yl)phenyl)-1H-pyrazolo[3,4-]pyridine] |
| 8.72 | Cc1ccc(-n2cc(-c3ccccn3)nc2-c2ccc(-n3c(C)nc4cccnc43)cc2)cn1 [Example 57, 2-methyl-3-(4-(1-(6-methylpyridin-3-yl)-4-(pyridin-2-yl)-1H-imidazol-2-yl)phenyl)-3H-imidazo[4,5-b]pyridine] |
| 8.97 | Cc1ccc(-n2cc(-c3ccccn3)nc2-c2ccc(-n3c(C(F)(F)F)nc4cccnc43)cc2)cn1 [Example 58, 2(trifluoromethyl)-3(4-(1-(6-methylpyridin-3-yl)-4-(pyridin-2-yl)-1H-imidazol-2-yl)phenyl)-3H-imidazo[4,5-b]pyridine] |
| 9.08 | Cc1ccc(-n2cc(-c3ccccn3)nc2-c2ccc(-n3c(C(C)C)nc4cccnc43)cc2)cn1 [Example 59, 2-isopropyl-3-(4-(1-(6-methylpyridin-3-yl)-4-(pyridin-2-yl)-1H-imidazol-2-yl)phenyl)-3H-imidazo[4,5-b]pyridine] |

Reference: patent US20080090834A1, “SELECTIVE AZOLE PDE10A INHIBITOR COMPOUNDS” (Pfizer Inc, priority 2006, published 2008)
